Source: patent US20120010289A1, “METHOD FOR PLACENTAL EXFOLIATION USING OXO-ARACHIDONIC ACID OR THE LIKE” (Inc Admin Agcy Natl Agric & Food Res. Organization, priority 2007, published 2012)

Experiments:
[1] = tested on: cultured fibroblasts derived from the placenta (MMP-producing cells); experiment: Cell exfoliation assay to search for MMP activators; assay type: cell-based; details: fibroblasts from bovine fetal placenta, monolayer treated with cortisol, compound added; FIG. 2 and FIG. 3
Description: The in vitro pharmacological evaluation is exemplified by a method using cultured fibroblasts derived from the placenta (MMP-producing cells). First, the composition for placental exfoliation of the present invention is added to a culture medium of the concerned cultured fibroblasts. After the addition, the cells are cultured for a fixed period of time.
Therefore, cultured fibroblasts derived from the placenta (MMP-producing cells) were used to search for MMP activators.
Since in vivo MMP-2 is produced from fibroblasts, fibroblasts were prepared from bovine fetal placenta. A fixed amount of cells were seeded on the culture plate, and were treated with cortisol after the monolayer formation. Further, the MMP activator candidate compounds were added thereto.

[2] = tested on: pregnant Holstein cow; experiment: Placental exfoliation by administration of 12-oxoarachidonic acid to a cow after prostaglandin-induced fetal delivery; assay type: in vivo
Description: The in vivo pharmacological evaluation is exemplified by a method using cows which have delivered fetuses by means of the single administration of a prostaglandin. First, the composition for placental exfoliation of the present invention is administered to cows after the fetal delivery.
In order to induce the fetal delivery, a formulation (10 ml) containing a naturally-occurring prostaglandin (50 mg) was intramuscularly injected into the hip of a pregnant Holstein cow (dairy cow) (body weight 779 kg) a week prior to the due date. Moreover, a cow after the third calving was again administered with the prostaglandin after 12 hours from the first injection thereof (evening on the first day).
The mother cow and the newborn calf were both healthy.
Next, after 4 hours from the fetal delivery, a saline solution (15 ml) containing 12-oxoarachidonic acid (1 mg) was intrajugularly injected into the mother cow which had delivered a fetus. After about 6 hours from the injection, the whole amount of the placenta was released from the mother cow. FIG. 4 presents photographs showing the manner of such parturition. […] In cases of the non-administration of 12-oxoarachidonic acid, the placenta was not released from the mother cow, and the placental retention occurred.

[3] = tested on: MMP; experiment: MMP activity in released placenta by gelatin zymography; assay type: in vivo, cow; details: PG-induction+oxo placenta compared with normal parturition and placental retention; FIG. 5
Description: In the method using gelatin zymography, first, the composition for MMP activation of the present invention is brought into contact with MMP-producing cells. After the incubation for a fixed time, the cells are lysed to make a protein solution, which is then subjected to an electrophoresis using a SDS polyacrylamide electrophoresis gel containing a gelatin (MMP substrate). After the migration, the temperature was kept for a fixed time to progress the enzyme reaction, followed by staining of undegraded gelatin remaining in the gel.
The MMP activity in released placenta was analyzed. The samples were as follows: a placenta released from a mother cow of normal parturition (without specific treatment) (expressed as “normal parturition” in FIG. 5); a placenta from a mother cow which was subjected to the fetal delivery induction with a prostaglandin but suffered from placental retention (expressed as “PG-induced parturition” in FIG. 5); a placenta released from a mother cow which was subjected to the fetal delivery induction with a prostaglandin and the subsequent placental release induction with a 12-oxoarachidonic acid (expressed as “PG-induction+oxo” in FIG. 5); and a placenta from a mother cow which had naturally-occurring placental retention (expressed as “placental retention cow” in FIG. 5).
The MMP activity was measured using gelatin zymography. […]

SMILES | cell exfoliation activity (MMP activation ability) [1] | also measured
CCCCC/C=C\C[C@@H](O)/C=C/C=C\C/C=C\CCCC(=O)O [12(R)-hydroxyarachidonic acid] | no cell exfoliation activities | –
CCCCC/C=C\C[C@@H](/C=C/C=C\C/C=C\CCCC(=O)O)OO [12(S)-hydroperoxyarachidonic acid] | weak cell exfoliation activities | –
CCCCC/C=C\C[C@H](O)/C=C/C=C\C/C=C\CCCC(=O)O [12(S)-hydroxyarachidonic acid] | no cell exfoliation activities | –
CCCCC/C=C\CC(=O)/C=C/C=C\C/C=C\CCCC(=O)O [12-oxoarachidonic acid] | showed a cell exfoliation activity at a lower concentration than that of the arachidonic acid itself | time from injection to release of the whole amount of the placenta ([2]; 1 mg in 15 ml saline, intrajugular, 4 hours after fetal delivery, Holstein cow 779 kg): about 6 hours; reproductive function of the postexperimental mother cow ([2]; after 1 mg intrajugular 12-oxoarachidonic acid): reproductive function was not affected; MMP pattern (proMMP activity) of released placenta [3]: MMP pattern very close to that of the placenta released from the cow of normal parturition
CCCCC/C=C\C/C=C\C/C=C\C/C=C\CCCC(=O)O [arachidonic acid] | confirmed to have a cell exfoliation activity | –
CCCCC/C=C\C/C=C\C/C=C\CCCCCCC(=O)O [dihomo-γ-linolenic acid] | weak activity | –
CCCCC/C=C\C/C=C\CCCCCCCC(=O)O [linoleic acid] | weak activity | –
CC/C=C\C/C=C\C/C=C\C/C=C\CCCCC(=O)O [stearidonic acid] | weak activity | –
CC/C=C\C/C=C\C/C=C\CCCCCCCC(=O)O [α-linolenic acid] | weak activity | –
CCCCC/C=C\C/C=C\C/C=C\CCCCC(=O)O [γ-linolenic acid] | medium activity | –
CC/C=C/C/C=C/C/C=C/C/C=C/CCCCCCC(=O)O [ω-3-arachidonic acid] | weak activity | –
